In ChEMBL document CHEMBL1151221, “Three new sesquiterpenes from Croton arboreous” (2004):

Test system: Mus musculus
Assay: Antiinflammatory activity against mouse assessed as inhibition TPA-induced ear edema at 0.5 mg/kg
Format: functional
Design: scale not given: the % may be the effect or the level left

Compound | Activity [%]
CC1=CC[C@@H](O)[C@]2(C)CC[C@H](C(C)C)[C@H](O)[C@@H]12 | 28
C=C1CC[C@@H]2[C@H]([C@H]3[C@H]1CC[C@]3(C)O)C2(C)C [SPATHULENOL] | 31.5
C=C1CC[C@@H](O)[C@]2(C)CC[C@@H](C(C)C)[C@@H](O)[C@@H]12 | 29.9
